In test [1] the test system is IFN production by activated immune cells (PBMC). Briefly: IFN production by R848-activated PBMC from healthy donors, STING-37 reporter cell line. In kind it is cell-based, human. The conditions noted are these: different concentrations, R848, STING-37 reporter, FIG. 1. As for the experimental part: 1) The blood from healthy donors was obtained from two sources. Either from “Etablissement Français du Sang” (convention #07/CABANEL/106), Paris, France or from the Apheresis and Blood Donation Unit at the Institute of Transfusion Medicine and Immunogenetics (IKT), Ulm, Germany after being approved by the Institutional Review Board at Ulm University.
(§1) In vitro experiments were performed using human peripheral blood mononuclear cells (PBMCs) isolated by density centrifugation from peripheral blood leukocyte separation medium (Cambrex, Gaithersburg, Md.).
(§2) PBMCs were cultured in RPMI 1640 (Invitrogen, Gaithersburg, Md.) (R10) containing 10% heat-inactivated fetal bovine serum, 100 U/mL Penicilium and 100 μg/mL Streptomycin (1% Pen-Strep) and 1 mM glutamine (Hyclone, Logan, Utah).
1) The PBMCs used herein were prepared as described in part A “immune cells preparation”, section 1) above. PBMCs were seeded at 2.10^6/mL. […]
(§3) 1) To quantify the secretion of functional IFN, a biological assay based on a stable cell line where luciferase reporter gene is controlled by five Interferon-Stimulated Response Elements (STING37 cell line) was used. […] After 24 h of culture, luciferase activity was determined by adding 50 μL of Bright-Glo reagents (Promega) to culture wells and measuring bioluminescence with a luminometer.

For test [2], the system named is IFN production by activated immune cells (PBMC) from lupus patients. Briefly: IFN production by R848-activated PBMC from lupus patients, STING-37 reporter cell line. It is filed as cell-based, human. The conditions noted are these: 10 μM, PBMC from three SLE patients, FIG. 2. As for the experimental part: Material from Juvenile Dermatomyositis and Lupus patients were obtained from Necker Hospital, Paris, France or from Imagine Institute, Paris, France. The study was approved by the Conité des Protection des Personnes (ID-RCB/EUDRACT: 2014-A01017-40 and 2018-A01358-47) in France.
as §1, §2
1) The PBMCs used herein were prepared as described in part A “immune cells preparation”, section 1) above. PBMCs were seeded at 2.10^6/mL. […] Cells were then stimulated with the TLR7/8 agonist resiquimod—R848 (Invivogen) at 5 μg/mL. […]
as §3

For test [3], the system named is TNFα production by monocytes (CD14+ cells). As to the kind of experiment: Requirement of CXCR4 (siRNA knockdown or AMD3100) for the effect on TNFα production by monocytes from healthy donors. In kind it is cell-based, human. The conditions noted are these: AMD3100 20 μM 1 h, example 1 5 μM or example 2 1 μM, R848, FIG. 5B. As for the experimental part:
Monocytes were purified from PBMCs by positive selection with the CD14 microbeads (Miltenyi Biotec) and MACS column.
1) The PBMCs used herein were prepared as described in part A “immune cells preparation”, section 1) above. PBMCs were seeded at 2.10^6/mL. […] Cells were then stimulated with the TLR7/8 agonist resiquimod—R848 (Invivogen) at 5 μg/mL. When stated, AMD (20 μM) (Sigma-Aldrich, MO, USA) was added to the cells 1 h before incubation with example 1.
Isolated monocytes were seeded at 10^5 cells/100 μL in 96-well plates and incubated at 37° C. Cyclophilin B (control) and CXCR4 small interfering RNA (siRNA) (Smart Pool, Dharmarcon) was diluted in DOTAP (Roche Applied Sciences). The mix was gently mixed and incubated at room temperature for 15 minutes. After incubation, the mix was added to cells in culture at a final concentration of 160 nM. Finally, cells were incubated at 37° C. for 24 hours before stimulation.
R848-stimulated PBMCs were washed in PBS and then incubated with a viability stain (Zombie-Aqua, Biolegend) for 30 min at 4° C. After washing, the cells were resuspended in PBS containing 2% FCS and 2 mM EDTA and stained with the extracellular mix using APC-anti-BDCA4 (clone 12C2), FITC-anti-CD123 (clone 6H6), PerCP.cy5.5-anti-CD56 (clone 5.1H11), BV421-anti-HLADR (clone L243), PE.cy7-anti-CD19 (clone 4G7), APC-cy.7-anti-CD14 (clone M5E2) all from Biolegend and used at 1/200 and V500-anti-CD3 (BD Bioscience, clone SP34-2, 1/200). For the TNFα intracellular staining a Fixation/Permeabilization Solution Kit (BD Cytofix/Cytoperm) was used according to the manufacturer's protocol. Briefly, the cells were fixed for 10 min at 4° C. with 100 μL of the Fixation/Permeabilization solution then washed and stained in 100 μL of the BD Perm/Wash Buffer containing TNFα-APC (Miltenyi, 1/500) antibody for 1 h at 4° C. Data acquisition was performed on a Canto II flow cytometer using Diva software (BD Biosciences, San Jose, Calif.). FlowJo software (Treestar, Ashland, Oreg.) was used to analyze data.

The next test concerns IL-10. As to the kind of experiment: Cytokine production by R848-activated PBMCs, LEGENDplex Human Inflammation panel 1: IL-10. In kind it is cell-based. The conditions noted are these: Homo sapiens, PBMC, PBMCs from 2 healthy donors, R848 overnight. As for the experimental part:
(§4) 2) The PBMCs used herein were prepared as described in part A “immune cells preparation”, section 2) above. PBMCs were seeded at 4.10^6/mL. […] Cells were then stimulated with the TLR7/8 agonist resiquimod—R848 (Sigma-Aldrich, MO, USA) at 5 μg/mL.
(§5) Cytokine expression levels were assessed using LEGENDplex Human inflammation panel 1 Kit (BioLegend, California, USA), which is a bead-based multiplex assay, using fluorescence-encoded beads. […] First, supernatants of R848-stimulated PBMCs were harvested after 24 h of stimulation and frozen at −20° C. for storage. Supernatants were dispensed into a 96-well V-bottom plate. Protocol pursued as per manufacturer recommendations (Manual for BioLegend LEGENDplex, Multi-Analyte Flow Assay Kit, Human Inflammation Panel 1, version 750000393_R01).

The test system of a further test is IL-18. As to the kind of experiment: Cytokine production by R848-activated PBMCs, LEGENDplex Human Inflammation panel 1: IL-18. In kind it is cell-based. The conditions noted are these: Homo sapiens, PBMC, PBMCs from 2 healthy donors, R848 overnight. As for the experimental part:
as §4, §5

The next test deals with IL-23. As to the kind of experiment: Cytokine production by R848-activated PBMCs, LEGENDplex Human Inflammation panel 1: IL-23. It is filed as cell-based. The conditions noted are these: Homo sapiens, PBMC, PBMCs from 2 healthy donors, R848 overnight. As for the experimental part: as §4, §5

Structures can show the parent of a compound that is named as a salt.

Turning to `CC1(C)CN2C(CSC3=NCC(C)(C)N3)=CSC2=N1` [Example 2, 3-(((5,5-dimethyl-4,5-dihydro-1H-imidazol-2-yl)thio)methyl)-6,6-dimethyl-5,6-dihydroimidazo[2,1-b]thiazole dihydrochloride], the “reduction of IFN production by activated PBMCs” value in test [1] was 100%. Moreover, in test [2], the “IFN production by activated PBMCs” value is listed as “level similar to the one of unstimulated negative controls”. The “TNFα production by activated monocytes in the presence of the example after pre-incubation with AMD3100” value in test [3] is recorded as “restored”. The IC50 with IL-10 was found to be 9.1 µM; with IL-18 it was 13 µM; in the test with IL-23 it was 4.7 µM.

In general, IC50 refers to the concentration that gives 50% inhibition.
